Converted amounts (≈) assume the structure as drawn. Like-named read-outs stand apart in the source and are kept apart here.
Experiments:
Type in all cases: cell-based
[1] = tested on: human promyelocytic leukemia cells HL-60; test: Growth inhibition (GD50) of human promyelocytic leukemia HL-60 cells
[2] = tested on: Tetrahymena pyriformis W; test: Antiprotozoal activity, MIC by serial broth dilution technique; settings: 28° C., 44-48 hours, tryptose peptone medium, pH 7.0; for MIC: Tetrahymena pyriformis
[3] = tested on: Cryptococcus neoformans; test: Antifungal activity, paper disc zone of inhibition; settings: 37° C., 2 days, agar, 8 mm paper disc, 2 mg/ml solution; for zone of inhibition at 2000 µg/mL: Cryptococcus neoformans, 48 h
Method: For the antifungal activity data given in Table 1, Cryptococcus neoformans is used as the test microorganism and incubated at 37° C. for 2 days in an agar medium with a paper disc (8 mm in diameter) immersed in an aqueous 2 mg/ml solution of a test compound and air-dried as placed on said medium, and the zone of inhibition is measured. The judgement criteria are as follows: "-" means less than 9 mm in inhibition zone diameter, "±" means 9-11 mm, "+" means 12-20 mm, and "++" means more than 20 mm.

[4] = tested on: mouse spontaneous myelolid leukemia M1 cells (resistant clone); test: Growth inhibition (GD50) of mouse leukemia M1 cells
[5] = tested on: Rauscher virus-induced promyelocytic leukemia cells R 453; test: Growth inhibition (GD50) of Rauscher virus-induced leukemia R 453 cells; settings: Mus musculus
[6] = tested on: Pyricularia oryzae; test: microbe, parasite or virus in culture
[7] = tested on: Cochliobolus miyabeanus; test: Antifungal activity, MIC by serial dilution in agar; settings: Bipolaris oryzae
[8] = tested on: Aspergillus; test: as above; settings: 1% glucose bouillon agar
Method: (§1) For the antifungal activity data shown in Table 2, various typical plant-disease-causing fungi are used as the test fungi and the minimum inhibitory concentration (MIC) are determined by the serial dilution technique using a 1% glucose bouillon agar medium.

[9] = tested on: Botrytis cinerea; test: as above; settings: 1% glucose bouillon agar
Method: as §1

[10] = tested on: Gibberella fujikuroi; test: as above; settings: Fusarium fujikuroi, 1% glucose bouillon agar
Method: as §1

[11] = tested on: Penicillium; test: as above; settings: 1% glucose bouillon agar
Method: as §1

[12] = tested on: Red yeast; test: as above; settings: 1% glucose bouillon agar
Method: as §1

[13] = tested on: Leptosphaeria salvinii; test: as above; settings: Nakataea oryzae
[14] = tested on: Brewer's yeast; test: as above
[15] = four successive population doublings of untreated cells, trypan blue, mean of four separate experiments

Compound	IC50 [1, 15] [µg/mL]	MIC [2] [µg/mL]	zone of inhibition at 2000 µg/mL [3] [mm]	MIC [6] [µg/mL]	MIC [7] [µg/mL]	MIC [8] [µg/mL]	MIC [9] [µg/mL]	MIC [10] [µg/mL]	MIC [11] [µg/mL]	MIC [12] [µg/mL]	MIC [13] [µg/mL]	MIC [14] [µg/mL]	also measured
CCCCCCCCCCCCCCCCCCNC(=O)OCCOP(=O)([O-])OCC[N+](C)(C)C [Example 15, 2-(N-Octadecylcarbamoyloxy)ethyl 2-trimethylammonioethyl phosphate]	2.3	1 to 2	12 to 20										
CCCCCCCCCCCCCCCCCCNC(=O)OCC(COP(=O)([O-])OCC[n+]1ccccc1)OC (stereo not drawn) [Example 12, 3-(N-n-Octadecylcarbamoyloxy)-2-methoxypropyl 2-pyridinioethyl phosphate]	1	4	12 to 20										
CCCCC/C=C\C/C=C\CCCCCCCNC(=O)OCCCOP(=O)([O-])OCC[N+](C)(C)C [Example 20]	4.8 (≈ 9.25 µM)	2 (≈ 3.86 µM)	12 to 20										
CCCCCCCCCCCCCCCCCCNC(=O)OCC(COP(=O)([O-])OCC[N+](C)(C)C)OC (stereo not drawn) [Example 11, 3-(N-n-Octadecylcarbamoyloxy)-2-methoxypropyl 2-trimethylammonioethyl phosphate]	0.6	2 to 4	12 to 20										
CCCCCCCCCCCCCCCCCNC(=O)OCCCOP(=O)([O-])OCC[N+](C)(C)C [Example 4, 3-(N-n-Heptadecylcarbamoyloxy)propyl 2-trimethylammonioethyl phosphate]		1 to 2	12 to 20	6.25	> 100	> 100	12.5	> 100	> 100	> 100	50	> 100	IC50 [4]: 3 to 4 µg/mL; IC50 [5]: 2 to 3 µg/mL; IC50 [1]: 1 µg/mL
COC1=C(OC)C(=O)C(CCCCCCCCCNC(=O)OCCCOP(=O)([O-])OCC[N+](C)(C)C)=C(C)C1=O [Example 8, 3-[N-(9-(2,3-Dimethoxy-6-methyl-1,4-benzoquinon-5-yl)nonyl)carbamoyloxy]propyl 2-trimethylammonioethyl phosphate]		40											
CCCCCCCCCCCCNC(=O)OCCCOP(=O)(O)OCCN [Example 32]		≤ 1	12 to 20										
CCCCC/C=C\C/C=C\CCCCCCCNC(=O)OCCCOP(=O)(O)OCCN [Example 22, 3-[8,11(Z,Z)-Heptadecadienylcarbamoyloxy]propyl 2-aminoethyl phosphate]	4.3	≤ 1	9 to 11										
CCCCCCCCCCCCCCCCCCNC(=O)OCC(COP(=O)([O-])OCC[n+]1ccsc1)OC (stereo not drawn) [Example 13, 3-(N-n-Octadecylcarbamoyloxy)-2-methoxypropyl 2-thiazolioethyl phosphate]		2 to 4	12 to 20										
CCCCCCCCCCNC(=O)OCC(COP(=O)(O)OCCN)OC (stereo not drawn) [Example 28, 3-(N-Decylcarbamoyloxy)-2-methoxypropyl 2-aminoethyl phosphate]		2	< 9										
CCCCCCCCCCCCCCNC(=O)OCC(COP(=O)([O-])OCC[N+](C)(C)C)OC (stereo not drawn) [Example 26, 3-(N-Tetradecylcarbamoyloxy)-2-methoxypropyl 2-trimethylammonioethyl phosphate]		0.2	12 to 20	3.12	12.5	12.5	3.12	12.5	12.5	25			IC50 [1]: 2 to 3 µg/mL; MIC ([13]; Leptosphaeria salvinii, 1% glucose bouillon agar, read-out: MIC): 6.25 µg/mL; MIC ([14]; Brewer's yeast, 1% glucose bouillon agar, read-out: MIC): 6.25 µg/mL
CCCCCCCCCCCCNC(=O)OCCCOP(=O)([O-])OCC[N+](C)(C)C [Example 31, 3-N-Dodecylcarbamoyloxypropyl 2-trimethylammonioethyl phosphate]		≤ 1	12 to 20	12.5	12.5	12.5	12.5	50	12.5	25	25	12.5	
CCCCCCCCCCCCCCNC(=O)OCC(COP(=O)(O)OCCN)OC (stereo not drawn) [Example 25, 3-(N-Tetradecylcarbamoyloxy)-2-methoxypropyl 2-aminoethyl phosphate]		≤ 1	> 20	6.25	> 100	25	6.25	50	25	50	100	25	IC50 [1]: 2 to 3 µg/mL
CCCCCCCCCCCCCNC(=O)OCCCOP(=O)([O-])OCC[N+](C)(C)C [Example 23, 3-(N-Tridecylcarbamoyloxy)propyl 2-trimethylammonioethyl phosphate]		≤ 0.1	12 to 20	6.25	12.5	12.5	6.25	25	12.5	12.5	12.5	12.5	
CCCCCCCCCCNC(=O)OCC(COP(=O)([O-])OCC[N+](C)(C)C)OC (stereo not drawn) [Example 29, 3-(N-Decylcarbamoyloxy)-2-methoxypropyl 2-trimethylammonioethyl phosphate]		2	9 to 11										
CCC=CCC=CCC=CCCCCCCCNC(=O)OCCCOP(=O)([O-])OCC[N+](C)(C)C [Example 17, 3-(N-8,11,14-Heptadecatrienylcarbamoyloxy)propyl 2-trimethylammonioethyl phosphate]	2	≤ 1	> 20	25	25	50	12.5	50	50	100	50	100	
3-[8,11,14(Z,Z,Z)-Heptadecatrienylcarbamoyloxy]propyl 2-aminoethyl phosphate [Example 18]													Tetrahymena pyriformis W MIC [2]: 2 to 4 µg/mL; Cryptococcus neoformans Zone of inhibition [3]: + (12-20 mm)
CCCCCCCCCCCCCCNC(=O)OCCCOP(=O)([O-])OCC[N+](C)(C)C [Example 36, 3-N-Tetradecylcarbamoyloxypropyl 2-trimethylammonioethyl phosphate]		≤ 1	> 20	3.12	25	12.5	12.5	12.5	12.5	25	6.25	6.25	
CCCCC/C=C\C/C=C\CCCCCCCNC(=O)OCCOP(=O)([O-])OCC[N+](C)(C)C [Example 21, 2-[8,11(Z,Z)-Heptadecadienylcarbamoyloxy]ethyl 2-trimethylammonioethyl phosphate]		2	9 to 11										

— patent US4565865A, “Phospholipid carbamates” (Takeda Chemical Industries, Ltd., priority 1980, dated 1986)
